Source: PubChem BioAssay (NCI)
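Results reflect a 48-hour exposure of cells in 96-well plates to compound at five concentrations. At the GI50, growth is halved. TGI: total growth inhibition.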

Experiments:
Test in all cases: growth of human tumour cells (NCI), 48 h
RPMI-8226 leukemia = test system: RPMI-8226 leukemia
A498 renal = test system: A498 renal
A549 NSCLC = test system: A549 NSCLC
T-47D breast = test system: T-47D breast
LOX IMVI melanoma = test system: LOX IMVI melanoma
786-0 renal = test system: 786-0 renal
K-562 leukemia = test system: K-562 leukemia
SW-620 colon = test system: SW-620 colon
MOLT-4 leukemia = test system: MOLT-4 leukemia
HOP-92 NSCLC = test system: HOP-92 NSCLC
HCC-2998 colon = test system: HCC-2998 colon
PC-3 prostate = test system: PC-3 prostate
SN12C renal = test system: SN12C renal
UACC-257 melanoma = test system: UACC-257 melanoma
SK-OV-3 ovarian = test system: SK-OV-3 ovarian
SNB-19 CNS = test system: SNB-19 CNS
HCT-15 colon = test system: HCT-15 colon
U251 CNS = test system: U251 CNS
SNB-75 CNS = test system: SNB-75 CNS
HL-60(TB) leukemia = test system: HL-60(TB) leukemia
NCI-H226 lung = test system: NCI-H226 lung
OVCAR-4 ovarian = test system: OVCAR-4 ovarian
UO-31 renal = test system: UO-31 renal
MDA-MB-231 breast = test system: MDA-MB-231 breast
OVCAR-8 ovarian = test system: OVCAR-8 ovarian
UACC-62 melanoma = test system: UACC-62 melanoma
OVCAR-3 ovarian = test system: OVCAR-3 ovarian
SF-295 CNS = test system: SF-295 CNS
CAKI-1 renal = test system: CAKI-1 renal
COLO 205 colon = test system: COLO 205 colon
HCT-116 colon = test system: HCT-116 colon
TK-10 renal = test system: TK-10 renal
MALME-3M melanoma = test system: MALME-3M melanoma
OVCAR-5 ovarian = test system: OVCAR-5 ovarian
NCI-H522 lung = test system: NCI-H522 lung
NCI/ADR-RES ovarian = test system: NCI/ADR-RES ovarian
SR leukemia = test system: SR leukemia
KM12 colon = test system: KM12 colon
ACHN renal = test system: ACHN renal
SK-MEL-2 melanoma = test system: SK-MEL-2 melanoma
SF-539 CNS = test system: SF-539 CNS
MCF7 breast = test system: MCF7 breast
HT29 colon = test system: HT29 colon
HOP-62 NSCLC = test system: HOP-62 NSCLC
SF-268 CNS = test system: SF-268 CNS
HS 578T breast = test system: HS 578T breast
BT-549 breast = test system: BT-549 breast
RXF 393 renal = test system: RXF 393 renal
DU-145 prostate = test system: DU-145 prostate
NCI-H23 lung = test system: NCI-H23 lung
MDA-MB-435 = test system: MDA-MB-435
SK-MEL-5 melanoma = test system: SK-MEL-5 melanoma
NCI-H460 lung = test system: NCI-H460 lung
SK-MEL-28 melanoma = test system: SK-MEL-28 melanoma
IGROV1 ovarian = test system: IGROV1 ovarian
CCRF-CEM leukemia = test system: CCRF-CEM leukemia

In the case of `CCCc1c(CC)c(=N)c2ccccc2n1C`, the GI50 (RPMI-8226 leukemia) is reported as 36.3 µM, the TGI (RPMI-8226 leukemia) is reported as > 100 µM and the GI50 (A498 renal) is reported as 22.8 µM. The TGI (A498 renal) was > 100 µM, the GI50 (A549 NSCLC) was > 100 µM and the TGI (A549 NSCLC) was > 100 µM. The GI50 (T-47D breast) was 33 µM, the TGI (T-47D breast) was > 100 µM and the GI50 (LOX IMVI melanoma) was > 100 µM. The TGI (LOX IMVI melanoma) was > 100 µM, the GI50 (786-0 renal) was > 100 µM and the TGI (786-0 renal) was > 100 µM. The GI50 (K-562 leukemia) was 51.1 µM, the TGI (K-562 leukemia) was > 100 µM and the GI50 (SW-620 colon) was > 100 µM. The TGI (SW-620 colon) was > 100 µM, the GI50 (MOLT-4 leukemia) was > 100 µM and the TGI (MOLT-4 leukemia) was > 100 µM. For the same compound, the GI50 (HOP-92 NSCLC) was 30.5 µM, the TGI (HOP-92 NSCLC) was > 100 µM and the GI50 (HCC-2998 colon) was > 100 µM. The TGI (HCC-2998 colon) was > 100 µM, the GI50 (PC-3 prostate) was 71.5 µM and the TGI (PC-3 prostate) was > 100 µM. For the same compound, the GI50 (SN12C renal) was 35.8 µM, the TGI (SN12C renal) was > 100 µM and the GI50 (UACC-257 melanoma) was 47.3 µM. The TGI (UACC-257 melanoma) was > 100 µM, the GI50 (SK-OV-3 ovarian) was > 100 µM and the TGI (SK-OV-3 ovarian) was > 100 µM. For the same compound, the GI50 (SNB-19 CNS) was 34.5 µM, the TGI (SNB-19 CNS) was > 100 µM and the GI50 (HCT-15 colon) was > 100 µM. For the same compound, the TGI (HCT-15 colon) was > 100 µM, the GI50 (U251 CNS) was 47.9 µM and the TGI (U251 CNS) was > 100 µM. The GI50 (SNB-75 CNS) was 74.1 µM, the TGI (SNB-75 CNS) was > 100 µM and the GI50 (HL-60(TB) leukemia) was > 100 µM. For the same compound, the TGI (HL-60(TB) leukemia) was > 100 µM, the GI50 (NCI-H226 lung) was 93.6 µM and the TGI (NCI-H226 lung) was > 100 µM. For the same compound, the GI50 (OVCAR-4 ovarian) was 20.1 µM, the TGI (OVCAR-4 ovarian) was > 100 µM and the GI50 (UO-31 renal) was > 100 µM. For the same compound, the TGI (UO-31 renal) was > 100 µM, the GI50 (MDA-MB-231 breast) was > 100 µM and the TGI (MDA-MB-231 breast) was > 100 µM. The GI50 (OVCAR-8 ovarian) was 48.9 µM, the TGI (OVCAR-8 ovarian) was > 100 µM and the GI50 (UACC-62 melanoma) was 66.3 µM. For the same compound, the TGI (UACC-62 melanoma) was > 100 µM, the GI50 (OVCAR-3 ovarian) was 59.9 µM and the TGI (OVCAR-3 ovarian) was > 100 µM. For the same compound, the GI50 (SF-295 CNS) was 57 µM, the TGI (SF-295 CNS) was > 100 µM and the GI50 (CAKI-1 renal) was > 100 µM. For the same compound, the TGI (CAKI-1 renal) was > 100 µM, the GI50 (COLO 205 colon) was > 100 µM and the TGI (COLO 205 colon) was > 100 µM. For the same compound, the GI50 (HCT-116 colon) was > 100 µM, the TGI (HCT-116 colon) was > 100 µM and the GI50 (TK-10 renal) was > 100 µM. For the same compound, the TGI (TK-10 renal) was > 100 µM, the GI50 (MALME-3M melanoma) was 42.6 µM and the TGI (MALME-3M melanoma) was > 100 µM. The GI50 (OVCAR-5 ovarian) was > 100 µM, the TGI (OVCAR-5 ovarian) was > 100 µM and the GI50 (NCI-H522 lung) was 65.6 µM. The TGI (NCI-H522 lung) was > 100 µM, the GI50 (NCI/ADR-RES ovarian) was > 100 µM and the TGI (NCI/ADR-RES ovarian) was > 100 µM. For the same compound, the GI50 (SR leukemia) was > 100 µM, the TGI (SR leukemia) was > 100 µM and the GI50 (KM12 colon) was 39.3 µM. The TGI (KM12 colon) was > 100 µM, the GI50 (ACHN renal) was > 100 µM and the TGI (ACHN renal) was > 100 µM. For the same compound, the GI50 (SK-MEL-2 melanoma) was > 100 µM, the TGI (SK-MEL-2 melanoma) was > 100 µM and the GI50 (SF-539 CNS) was > 100 µM. The TGI (SF-539 CNS) was > 100 µM, the GI50 (MCF7 breast) was 30 µM and the TGI (MCF7 breast) was > 100 µM. For the same compound, the GI50 (HT29 colon) was > 100 µM, the TGI (HT29 colon) was > 100 µM and the GI50 (HOP-62 NSCLC) was > 100 µM. The TGI (HOP-62 NSCLC) was > 100 µM, the GI50 (SF-268 CNS) was > 100 µM and the TGI (SF-268 CNS) was > 100 µM. For the same compound, the GI50 (HS 578T breast) was > 100 µM, the TGI (HS 578T breast) was > 100 µM and the GI50 (BT-549 breast) was 44.2 µM. For the same compound, the TGI (BT-549 breast) was > 100 µM, the GI50 (RXF 393 renal) was > 100 µM and the TGI (RXF 393 renal) was > 100 µM. For the same compound, the GI50 (DU-145 prostate) was > 100 µM, the TGI (DU-145 prostate) was > 100 µM and the GI50 (NCI-H23 lung) was 37.7 µM. The TGI (NCI-H23 lung) was > 100 µM, the GI50 (MDA-MB-435) was > 100 µM and the TGI (MDA-MB-435) was > 100 µM. The GI50 (SK-MEL-5 melanoma) was 24.9 µM, the TGI (SK-MEL-5 melanoma) was > 100 µM and the GI50 (NCI-H460 lung) was > 100 µM. The TGI (NCI-H460 lung) was > 100 µM, the GI50 (SK-MEL-28 melanoma) was 69.2 µM and the TGI (SK-MEL-28 melanoma) was > 100 µM. For the same compound, the GI50 (IGROV1 ovarian) was > 100 µM, the TGI (IGROV1 ovarian) was > 100 µM and the GI50 (CCRF-CEM leukemia) was > 100 µM. For the same compound, the TGI (CCRF-CEM leukemia) was > 100 µM.
